Reference: the NIST ThermoML archive (doi:10.1021/je700618y)

Key:
[1] = 298.15 K, 101.33 kPa, Liquid; for viscosity: Capillary tube (Ostwald / Ubbelohde) method
[2] = refractive index (Na D-line) (dimensionless); conditions: 298.15 K; 101.33 kPa; Liquid; Standard Abbe refractometry
[3] = xn = mol fraction of the nth substance listed; conditions: 298.15 K, 101 kPa, Liquid; for viscosity: Capillary tube (Ostwald / Ubbelohde) method; for mass density: Vibrating tube method
[4] = refractive index (Na D-line) (dimensionless); xn = mol fraction of the nth substance listed; conditions: 298.15 K, 101 kPa, Liquid, Standard Abbe refractometry

CCO [ethanol]
Conditions	mass density [kg/m3]	refractive index	viscosity [mPa·s]
[1]	785.12	–	1.076
[2]	–	1.35937	–

CCO [ethanol] + O
Conditions	mass density, [3] [kg/m3]	refractive index, [4]	viscosity, [3] [mPa·s]
x2 = 0.048	791.06	1.36013	1.158
x2 = 0.1116	799.08	1.361	1.261
x2 = 0.1599	805.32	1.3615	1.326
x2 = 0.1761	807.44	1.36168	1.36
x2 = 0.2668	820.06	1.36247	1.496
x2 = 0.301	825.06	1.36266	1.556
x2 = 0.3994	840.69	1.36295	1.726
x2 = 0.497	858.26	1.3628	1.932
x2 = 0.6122	882.42	1.36176	2.161
x2 = 0.7116	907.85	1.35974	2.385
x2 = 0.7774	926.61	1.35727	2.353
x2 = 0.8145	937.62	1.3554	2.366
x2 = 0.8529	949.42	1.35243	2.193
x2 = 0.8967	960.95	1.34783	1.92
x2 = 0.9481	976.77	1.34063	1.432

COS(=O)(=O)[O-].C[N+](CCO)(CCO)CCO [tris(2-hydroxyethyl) methylammonium methylsulfate]
Conditions	refractive index	viscosity [mPa·s]
[1]	–	1236
[2]	1.48489	–

Conditions	mass density [kg/m3]
[1], Vibrating tube method	1344.13

COS(=O)(=O)[O-].C[N+](CCO)(CCO)CCO [tris(2-hydroxyethyl) methylammonium methylsulfate] + CCO
Conditions	mass density, [3] [kg/m3]	refractive index, [4]	viscosity, [3] [mPa·s]
x1 = 0.0482	876.74	1.3818	2.26
x1 = 0.0981	951.17	1.39899	4.523
x1 = 0.1509	1014.1	1.41373	8.351
x1 = 0.1994	1061.07	1.42476	13.32
x1 = 0.242	1097.16	1.43322	19.62
x1 = 0.2922	1132.75	1.44083	29.16
x1 = 0.3882	1187.8	1.45307	58.72
x1 = 0.4841	1229.34	1.46222	110.8
x1 = 0.5923	1264.46	1.4695	204.3
x1 = 0.6288	1273.93	1.47153	247.6
x1 = 0.6881	1288.67	1.47511	333.6
x1 = 0.7379	1299.19	1.47666	430.4
x1 = 0.7878	1309.46	1.47867	518.1
x1 = 0.8379	1318.78	1.48018	657.1
x1 = 0.8738	1324.39	1.48134	775.7
x1 = 0.9203	1331.87	1.48278	902.1

COS(=O)(=O)[O-].C[N+](CCO)(CCO)CCO [tris(2-hydroxyethyl) methylammonium methylsulfate] + O
Conditions	mass density, [3] [kg/m3]	refractive index, [4]	viscosity, [3] [mPa·s]
x1 = 0.0478	1129.13	1.38887	2.341
x1 = 0.0967	1195.06	1.41769	5.054
x1 = 0.1939	1258.48	1.44581	16.79
x1 = 0.2421	1275.98	1.4539	27
x1 = 0.2894	1288.49	1.45949	41.22
x1 = 0.3872	1306.02	1.46758	86.07
x1 = 0.4858	1317.49	1.47335	159.5
x1 = 0.6064	1327.14	1.47587	290.1
x1 = 0.6698	1330.96	1.47878	390.7
x1 = 0.7822	1336.36	1.4813	569
x1 = 0.867	1339.64	1.4827	756.2
x1 = 0.9398	1342.07	1.48341	960.7
